Structures are written as SMILES. ≈ marks a conversion by molar mass, not a printed value.

For one test, the system named is Staphylococcus aureus. The test is described as follows: MIC by broth microdilution against Staphylococcus aureus. Conditions: read-out: minimum inhibitory concentration (MIC). The class given is cell-based. Background: In broth dilution the organism is exposed to a series of concentrations in liquid medium.
Test [1] deals with strain ATCC 33591 of MRSA. As to the kind of experiment: MIC by broth microdilution against MRSA. Conditions: MRSA ATCC 33591, 36° C. 48 h, Resazurin.
Experimental: Pure DMSO samples are shown as zero control. […] Initial Concentration: 850 μg/mL.
The ethanol extract was dissolved in DMSO at a concentration of 10 mg/mL, from which serial dilutions were prepared (ratio 1:2) in 96-well sterile plates, geometry 12×8 wells. To each well were added 10 μL of a bacterial suspension containing approximately 7×10^6 cells/mL, prepared from the recent growth of strain ATCC 33591 of MRSA in nutrient agar. […] The experiments were performed in quadruplicate, in different periods.
The test system of test [2] is clinical isolates of Staphylococcus aureus. Conditions: pure molecule; literature value; cited from earlier work.

Consider `CC(C)C(=O)c1c2c(c3oc(=O)cc(-c4ccc(O)cc4)c3c1O)CC(C)(C)C=C2` [amarilin], for which the MIC with Staphylococcus aureus was at most 1 µg/mL.
In the case of `Cl.O=C(O)c1cn(C2CC2)c2cc(N3CCNCC3)c(F)cc2c1=O` [hydrochloride ciprofloxacin], the “minimum inhibitory concentration (MIC)” value in test [1] was found to be 1 µg/mL.
As for `C/C(=C\C(=O)OCCCCCCCCC(=O)O)C[C@@H]1OC[C@H](C[C@@H]2O[C@H]2[C@@H](C)[C@H](C)O)[C@@H](O)[C@H]1O` [mupirocin], in test [2], the MIC value is around 0.5 µg/mL (≈ 0.999 µM).

Source of the values: patent US20150335691A1, “PLANT EXTRACT OBTAINED FROM KIELMEYERA AUREOVINOSA WHICH HAS ANTIBIOTIC ACTIVITY, ISOLATED CHEMICAL COMPOUND, COMPOSITIONS COMPRISING SAME, USES THEREOF AND METHODS FOR PREVENTING AND TREATING BACTERIAL INFECTIONS” (EXTRACTA MOLÉCULAS NATURAIS S/A, priority 2011, published 2015).
